{"source": "patent US20060276416A1", "about": "“Methods and compositions for treating flushing and drug induced weight gain” (Sirtris Pharmaceuticals, Inc., priority 2005, published 2006)", "key": {"[1]": {"test_system": "AMPK at Thr172 and ACC at serine 79", "experiment": "AMPK and ACC phosphorylation Western in CHO-HIR cells", "format": "cell-based", "quoted_text": "Cells were harvested after 30 minutes and lysates were immediately boiled in SDS and subjected to Western analysis with site-specific antibodies. Phosphorylation of AMPK at Thr172 indicates activation of the kinase. Active AMPK phosphorylates and inactivates ACC at serine 79."}, "S. cerevisiae": {"test_system": "S. cerevisiae", "experiment": "Yeast replicative lifespan by micro-manipulation", "format": "cell-based", "experimental": "Average lifespan for wild type, 22.9 generations, quercetin, 23.4; piceatannol.\nLifespan measurements were performed using PSY316AT MATα as previously described^35. All compounds for lifespan analyses were dissolved in 95% ethanol and plates were dried and used within 24 hours. Prior to lifespan analysis, cells were pre-incubated on their respective media for at least 15 hours. Following transfer to a new plate, cells were equilibrated on the medium for a minimum of 4 hours prior to micro-manipulating them. At least 30 cells were examined per experiment and each experiment was performed at least twice. Statistical significance of lifespan differences was determined using the Wilcoxon rank sum test. Differences are stated to be significant when the confidence is higher than 95%."}, "D. melanogaster": {"test_system": "D. melanogaster", "experiment": "D. melanogaster survival (lifespan) assay", "format": "in vivo", "experimental": "Survival assays were conducted independently with adult D. melanogaster in two laboratories. In the first laboratory, all trials used an yw marked wild-type strain. Larvae were reared on standard cornmeal-sugar-yeast (CSY) agar diet (cornmeal 5%, sucrose 10.5%, SAF yeast 2%, and agar 0.7%). Newly eclosed adults were placed in 1 L demography cages with approximately 75 males and 75 females. Three to four replicate 1 L demography cages were used for each treatment group in each trial. Every two days, dead flies were removed and scored, and food vials were replenished. Food vials contained cornmeal-sugar-yeast diet with SAF yeast as either 2% or 3% by weight. Test compounds in 100 μl of EtOH (or blank EtOH in controls) were mixed into melted aliquots of the adult food media to make a final concentration of 0, 10 or 100 μM. Fresh stock solutions and adult media were prepared weekly. In the second laboratory, lifespan trials were conducted with the wild type strain Canton-S, dSir2^4.5 and dSir2^5.26 (S. Smolik, University of Oregon), dSir2^17 (S. Astrom, Stockholm University, Sweden), and dSir2^KG00871 (Drosophila Stock Center, Bloomington, Ind.). Larvae for all tests were reared on standard cornmeal-sugar-yeast diet. Newly eclosed adults were incubated in plastic shell vials containing 5 ml of 15% sugar-yeast diet (15% SY) or 5% sugar-yeast (5% SY) diet (15% SY: 15% yeast, 15% sucrose, 2% agar; 5% SY: 5% yeast, 5% sucrose, 2% agar as per Ref.^20). In all trials, ˜20 males with ˜20 females were placed into each of 10 vials/treatment group. Every two days, flies were passed into new vials and dead flies were counted. […] Final compound concentrations were 0, 10, 100 or 200 μM. Fresh stock solution and adult media was prepared weekly."}, "recombinant human SIRT1": {"molecular_target": "T1, recombinant human SIRT1 (Homo sapiens, UniProt Q96EB6)", "T1 sequence (Q96EB6 1-747)": "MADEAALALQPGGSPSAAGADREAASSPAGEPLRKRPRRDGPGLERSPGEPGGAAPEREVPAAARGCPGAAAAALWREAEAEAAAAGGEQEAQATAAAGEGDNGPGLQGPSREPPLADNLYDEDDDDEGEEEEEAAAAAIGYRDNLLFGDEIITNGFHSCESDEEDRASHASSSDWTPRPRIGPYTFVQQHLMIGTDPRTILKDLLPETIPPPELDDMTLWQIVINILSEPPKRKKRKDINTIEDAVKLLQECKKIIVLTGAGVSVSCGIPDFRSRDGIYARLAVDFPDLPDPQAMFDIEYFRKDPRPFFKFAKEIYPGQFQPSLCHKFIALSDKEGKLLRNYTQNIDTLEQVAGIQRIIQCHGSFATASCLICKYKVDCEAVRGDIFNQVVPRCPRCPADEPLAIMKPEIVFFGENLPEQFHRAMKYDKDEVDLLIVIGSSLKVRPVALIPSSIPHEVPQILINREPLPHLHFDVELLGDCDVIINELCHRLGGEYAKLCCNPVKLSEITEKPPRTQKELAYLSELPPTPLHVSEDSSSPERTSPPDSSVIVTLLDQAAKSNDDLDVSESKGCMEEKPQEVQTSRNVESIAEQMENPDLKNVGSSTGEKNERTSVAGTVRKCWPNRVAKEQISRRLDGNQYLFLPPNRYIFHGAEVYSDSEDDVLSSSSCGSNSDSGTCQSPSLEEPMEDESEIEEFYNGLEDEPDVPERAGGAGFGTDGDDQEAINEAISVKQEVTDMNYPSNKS", "experiment": "SIRT1 fluorescent deacetylation assay (p53-382 acetylated peptide)", "format": "biochemical", "quoted_text": "To identify compounds that modulate SIRT1 activity, a number of small molecule libraries were screened using a fluorescent deacetylation assay in 96-well plates^26. The substrate used in the assay was a fluorogenic peptide based on the sequence encompassing the p53-K382 acetylation site, a known target of SIRT1 in vivo^20,21,27. […] The small molecule libraries included analogues of nicotinamide, ε-acetyl lysine, NAD^+, nucleotides, nucleotide analogues and purinergic ligands.\nFrom 0.1 to 1 μg of SIRT1 and 1.5 μg of Sir2 were used per deacetylation assay (in 50 μl total reaction) as previously described^26. SIRT1 assays and certain of those for Sir2 employed the p53-382 acetylated substrate (‘Fluor de Lys-SIRT1’, BIOMOL) rather than FdL.\nThemed compound libraries (BIOMOL) were used for primary and secondary screening. Most polyphenol compounds were dissolved at 10 mM in dimethylsulfoxide (DMSO) on the day of the assay. For water soluble compounds and negative controls, 1% v/v DMSO was added to the assay. In vitro fluorescence assay results were read in white ½-volume 96-well microplates (Corning Costar 3693) with a CytoFluor™ II fluorescence plate reader (PerSeptive Biosystems, Ex. 360 nm, Em. 460 nm, gain=85). […] Unless otherwise indicated all initial rate measurements were means of three or more replicates, obtained with single incubation times, at which point 5% or less of the substrate initially present had been deacetylated. Calculation of net fluorescence increases included subtraction of a blank value, which in the case of Sir2 was obtained by omitting the enzyme from the reaction and in the case of SIRT1 by adding an inhibitor (200 μM suramin or 1 mM nicotinamide) to the reaction prior to the acetylated substrate. A number of the polyphenols partially quenched the fluorescence produced in the assay and correction factors were obtained by determining the fluorescence increase due to a 3 μM spike of an FdL deacetylated standard (BIOMOL, catalog number KI-142). All error bars represent the standard error of the mean.\nAll SIRT1 rate measurements used in the calculation of “Ratio to Control Rate” were obtained with 25 μM NAD^+ and 25 μM p53-382 acetylated peptide substrate were performed as described above and in K. T. Howitz et al. Nature (2003) 425: 191. All ratio data were calculated from experiments in which the total deacetylation in the control reaction was 0.25-1.25 μM peptide or 1-5% of the initial concentration of acetylated peptide."}, "lysine 382 of p53": {"test_system": "lysine 382 of p53", "experiment": "p53 K382 acetylation Western blot in UV-irradiated U2OS cells", "format": "cell-based, human", "quoted_text": "FdL (200 μM) is added to growth media and cells incubated for 1-3 hours to allow FdL to enter the cells and the lysine-deacetylated product (deAc-FdL) to accumulate intracellularly. Cells are lysed with detergent in the presence of 1 μM TSA, 1 mM nicotinamide. […] Cells were grown adherently in DMEM/10% FCS and treated for 1 hour with 200 μM FdL, 1 μM TSA and either vehicle (0.5% final DMSO, Control) or 500 μM of the indicated compound. Intracellular accumulation of deAc-FdL was then determined as described briefly in a. […] Lysates were prepared and analyzed as above.\nWhole cell extracts were prepared by lysing cells in buffer containing 150 mM NaCl, 1 mM MgCl2, 10% glycerol, 1% NP40, 1 mM DTT and anti-protease cocktail (Roche)."}, "C. elegans": {"test_system": "C. elegans", "experiment": "C. elegans fat accumulation, Nile Red staining", "format": "in vivo", "experimental": "Fat accumulation was visualized with Nile Red staining, as described further below and in Ashrafi K, et al. Nature 421:268-27 (2003).\nSynchronized starved L1 worms were grown in the presence of Nile Red. Strains were grown on NGM plates at 25° C. for approximately 48 hours until the young adult stage was reached. 20-30 young adult worms were then washed 2× with M9 buffer and transferred to new NGM/Nile red experimental plates that contained either OP50 or HTT5 E. coli carrying the L4440 RNAi control vector.\nYoung adults were transferred to plates containing the appropriate vector, Nile Red stain and drug then maintained at 25° C.\nNile Red: Nile Red Powder (Sigma #N-3013) was dissolved in acetone at 500 μg/ml, diluted in 1× Phosphate Buffered Saline (PBS) including appropriate drug and applied to surface of Nematode Growth Media (NGM) plates previously seeded with OP50 or RNAi bacteria, at a final concentration of 0.05 μg/ml. Fat content was monitored and recorded by fluorescence microscopy."}}}
{"smiles": "Oc1ccc(/C=C/c2cc(O)cc(O)c2)cc1", "note": "[Resveratrol, 3,5,4′-Trihydroxy-trans-stilbene]", "values": [{"measurement": "Activation of AMPK", "setting": "[1]; 100 nM to 50 μM resveratrol, increasing concentrations", "value": "activation of AMPK"}, {"measurement": "Phosphorylation of AMPK and ACC", "setting": "[1]; AICAR 500 μM, resveratrol 12.5, 25 or 50 μM, 30 minutes", "value": "stimulates phosphorylation of AMPK and ACC"}, {"measurement": "Average lifespan", "setting": "S. cerevisiae; glucose-restricted+resveratrol (CR+R)", "value": 39.9, "unit": "generations"}, {"measurement": "Average lifespan", "setting": "S. cerevisiae; growth on resveratrol 10 μM, wild type untreated 21.0", "value": 35.7, "unit": "generations"}, {"measurement": "Average lifespan", "setting": "S. cerevisiae; growth on resveratrol 100 μM, wild type untreated 21.0", "value": 29.4, "unit": "generations"}, {"measurement": "Average lifespan", "setting": "S. cerevisiae; growth on resveratrol 500 μM, wild type untreated 21.0", "value": 29.3, "unit": "generations"}, {"measurement": "Average lifespan", "setting": "S. cerevisiae; pnc1Δ+resveratrol, pnc1Δ 19.2", "value": 33.1, "unit": "generations"}, {"measurement": "Average lifespan", "setting": "S. cerevisiae; sir2Δ+resveratrol, sir2Δ 9.9", "value": 10.0, "unit": "generations"}, {"measurement": "Average lifespan", "setting": "S. cerevisiae; wild type+resveratrol, wild type untreated 19.0", "value": 37.8, "unit": "generations"}, {"measurement": "Lifespan increase", "setting": "D. melanogaster; Canton-S/dSir2 KG0087, maximum", "value": "up to 17%"}, {"measurement": "Lifespan extension (in words)", "setting": "D. melanogaster; dSir2 4.5/5.26 (no functional dSir2) or dSir2 17/KG00871 (severely decreased), 100 μM", "value": "failed to extend lifespan"}, {"measurement": "Increase of longevity (in words)", "setting": "D. melanogaster; flies homozygous for a hypomorphic dSir2 allele", "value": "small but statistically significant amount"}, {"measurement": "Longevity under restricted diet", "setting": "D. melanogaster; restricted diet", "value": "neither resveratrol nor fisetin further increased longevity"}, {"measurement": "Lifespan extension", "setting": "D. melanogaster; wild type strains, males and females, independent tests, maximum", "value": "up to 29%"}, {"measurement": "Concentration at which the activating effect was essentially saturated", "setting": "recombinant human SIRT1; 25 μM NAD+, 25 μM p53-382 acetylated peptide", "value": "100 λM"}, {"measurement": "Vmax", "setting": "recombinant human SIRT1; 1 mM p53-382 acetylated peptide, variable NAD+, +100 μM resveratrol (control 1863)", "value": 1749, "unit": "AFU/min"}, {"measurement": "Vmax", "setting": "recombinant human SIRT1; 3 mM NAD+, variable p53-382 acetylated peptide, +100 μM resveratrol (control 1107)", "value": 926, "unit": "AFU/min"}, {"measurement": "Level of Ac-K382", "setting": "lysine 382 of p53; 0.5 μM resveratrol, 4 hours pre-treatment, UV radiation", "value": "marked decrease"}, {"measurement": "Level of Ac-K382", "setting": "lysine 382 of p53; higher concentrations of resveratrol (>50 μM)", "value": "reversed"}, {"measurement": "Fat staining", "setting": "C. elegans; 100 μM, 48 hours, control 2.5% v/v DMSO", "value": "Significant reduction"}, {"measurement": "Fat mobilization", "setting": "C. elegans; DAF-16 mutant worms (mgDf47)", "value": "stimulates fat mobilization"}, {"measurement": "Fat mobilization", "setting": "C. elegans; RNA inactivation of TOC1.8 (AMPK) or F41E7.3 (COT)", "value": "blocks resveratrol-stimulated fat mobilization"}, {"measurement": "Fat mobilization", "setting": "C. elegans; Sir2.1 RNAi", "value": "did not show resveratrol induced fat mobilization"}, {"measurement": "Reduction of fat content", "setting": "C. elegans; normal worms, RNAi vector alone", "value": 75, "unit": "%"}, {"measurement": "Fat accumulation (in words)", "setting": "C. elegans; wild-type N2, 10 μM or 50 μM", "value": "marked decrease"}, {"measurement": "Reduction of fat accumulation", "setting": "C. elegans; wild-type N2, 100 μM, overnight", "value": 90, "unit": "%"}]}
